Source: ChEMBL document CHEMBL4665642, “Anticancer profile of newly synthesized BRAF inhibitors possess 5-(pyrimidin-4-yl)imidazo[2,1-b]thiazole scaffold” (Bioorg Med Chem, 2019)

Tests used:
Type in all cases: functional
Conditions in all cases: read-out: Activity
[1] = tested on: SW-620; assay: Cytotoxicity against human SW-620 cells assessed as cell viability at 10 uM incubated for 48 hrs by sulforhodamine B assay relative to control
[2] = tested on: M14; assay: Cytotoxicity against human M14 cells assessed as cell viability at 10 uM incubated for 48 hrs by sulforhodamine B assay relative to control
[3] = tested on: Malme-3M; assay: Cytotoxicity against human Malme-3M cells assessed as cell viability at 10 uM incubated for 48 hrs by sulforhodamine B assay relative to control
[4] = tested on: HOP-62; assay: Cytotoxicity against human HOP-62 cells assessed as cell viability at 10 uM incubated for 48 hrs by sulforhodamine B assay relative to control
[5] = tested on: MDA-MB-435; assay: Cytotoxicity against human MDA-MB-435 cells assessed as cell viability at 10 uM incubated for 48 hrs by sulforhodamine B assay relative to control
[6] = tested on: UACC-62; assay: Cytotoxicity against human UACC-62 cells assessed as cell viability at 10 uM incubated for 48 hrs by sulforhodamine B assay relative to control
[7] = tested on: NCI-H522; assay: Cytotoxicity against human NCI-H522 cells assessed as cell viability at 10 uM incubated for 48 hrs by sulforhodamine B assay relative to control
[8] = tested on: HOP-92; assay: Cytotoxicity against human HOP-92 cells assessed as cell viability at 10 uM incubated for 48 hrs by sulforhodamine B assay relative to control
[9] = tested on: COLO 205; assay: Cytotoxicity against human COLO 205 cells assessed as cell viability at 10 uM incubated for 48 hrs by sulforhodamine B assay relative to control
[10] = tested on: 786-0; assay: Cytotoxicity against human 786-0 cells assessed as cell viability at 10 uM incubated for 48 hrs by sulforhodamine B assay relative to control
[11] = tested on: SN12C; assay: Cytotoxicity against human SN12C cells assessed as cell viability at 10 uM incubated for 48 hrs by sulforhodamine B assay relative to control
[12] = tested on: PC-3; assay: Cytotoxicity against human PC-3 cells assessed as cell viability at 10 uM incubated for 48 hrs by sulforhodamine B assay relative to control
[13] = tested on: CCRF-CEM; assay: Cytotoxicity against human CCRF-CEM cells assessed as cell viability at 10 uM incubated for 48 hrs by sulforhodamine B assay relative to control
[14] = tested on: NCI/ADR-RES; assay: Cytotoxicity against human NCI/ADR-RES cells assessed as cell viability at 10 uM incubated for 48 hrs by sulforhodamine B assay relative to control
[15] = tested on: SF-268; assay: Cytotoxicity against human SF-268 cells assessed as cell viability at 10 uM incubated for 48 hrs by sulforhodamine B assay relative to control
[16] = tested on: TK-10; assay: Cytotoxicity against human TK-10 cells assessed as cell viability at 10 uM incubated for 48 hrs by sulforhodamine B assay relative to control
[17] = tested on: EKVX; assay: Cytotoxicity against human EKVX cells assessed as cell viability at 10 uM incubated for 48 hrs by sulforhodamine B assay relative to control
[18] = tested on: K562; assay: Cytotoxicity against human K562 cells assessed as cell viability at 10 uM incubated for 48 hrs by sulforhodamine B assay relative to control
[19] = tested on: SK-MEL-5; assay: Cytotoxicity against human SK-MEL-5 cells assessed as cell viability at 10 uM incubated for 48 hrs by sulforhodamine B assay relative to control
[20] = tested on: BT-549; assay: Cytotoxicity against human BT-549 cells assessed as cell viability at 10 uM incubated for 48 hrs by sulforhodamine B assay relative to control
[21] = tested on: HCT-116; assay: Cytotoxicity against human HCT-116 cells assessed as cell viability at 10 uM incubated for 48 hrs by sulforhodamine B assay relative to control
[22] = tested on: UACC-257; assay: Cytotoxicity against human UACC-257 cells assessed as cell viability at 10 uM incubated for 48 hrs by sulforhodamine B assay relative to control
[23] = tested on: CAKI-1; assay: Cytotoxicity against human CAKI-1 cells assessed as cell viability at 10 uM incubated for 48 hrs by sulforhodamine B assay relative to control
[24] = tested on: OVCAR-4; assay: Cytotoxicity against human OVCAR-4 cells assessed as cell viability at 10 uM incubated for 48 hrs by sulforhodamine B assay relative to control
[25] = tested on: OVCAR-5; assay: Cytotoxicity against human OVCAR-5 cells assessed as cell viability at 10 uM incubated for 48 hrs by sulforhodamine B assay relative to control
[26] = tested on: NCI-H23; assay: Cytotoxicity against human NCI-H23 cells assessed as cell viability at 10 uM incubated for 48 hrs by sulforhodamine B assay relative to control
[27] = tested on: SNB-75; assay: Cytotoxicity against human SNB-75 cells assessed as cell viability at 10 uM incubated for 48 hrs by sulforhodamine B assay relative to control
[28] = tested on: RPMI-8226; assay: Cytotoxicity against human RPMI-8226 cells assessed as cell viability at 10 uM incubated for 48 hrs by sulforhodamine B assay relative to control
[29] = tested on: UO-31; assay: Cytotoxicity against human UO-31 cells assessed as cell viability at 10 uM incubated for 48 hrs by sulforhodamine B assay relative to control
[30] = tested on: OVCAR-3; assay: Cytotoxicity against human OVCAR-3 cells assessed as cell viability at 10 uM incubated for 48 hrs by sulforhodamine B assay relative to control
[31] = tested on: IGROV-1; assay: Cytotoxicity against human IGROV-1 cells assessed as cell viability at 10 uM incubated for 48 hrs by sulforhodamine B assay relative to control
[32] = tested on: HCC 2998; assay: Cytotoxicity against human HCC 2998 cells assessed as cell viability at 10 uM incubated for 48 hrs by sulforhodamine B assay relative to control
[33] = tested on: NCI-H322M; assay: Cytotoxicity against human NCI-H322M cells assessed as cell viability at 10 uM incubated for 48 hrs by sulforhodamine B assay relative to control
[34] = tested on: MOLT-4; assay: Cytotoxicity against human MOLT-4 cells assessed as cell viability at 10 uM incubated for 48 hrs by sulforhodamine B assay relative to control
[35] = tested on: KM12; assay: Cytotoxicity against human KM12 cells assessed as cell viability at 10 uM incubated for 48 hrs by sulforhodamine B assay relative to control
[36] = tested on: ACHN; assay: Cytotoxicity against human ACHN cells assessed as cell viability at 10 uM incubated for 48 hrs by sulforhodamine B assay relative to control
[37] = tested on: SK-OV-3; assay: Cytotoxicity against human SK-OV-3 cells assessed as cell viability at 10 uM incubated for 48 hrs by sulforhodamine B assay relative to control
[38] = tested on: OVCAR-8; assay: Cytotoxicity against human OVCAR-8 cells assessed as cell viability at 10 uM incubated for 48 hrs by sulforhodamine B assay relative to control
[39] = tested on: SF-295; assay: Cytotoxicity against human SF-295 cells assessed as cell viability at 10 uM incubated for 48 hrs by sulforhodamine B assay relative to control
[40] = tested on: U-251; assay: Cytotoxicity against human U-251 cells assessed as cell viability at 10 uM incubated for 48 hrs by sulforhodamine B assay relative to control
[41] = tested on: SNB-19; assay: Cytotoxicity against human SNB-19 cells assessed as cell viability at 10 uM incubated for 48 hrs by sulforhodamine B assay relative to control

O=S(=O)(NCCNc1nccc(-c2c(-c3cccc(F)c3)nc3sccn23)n1)c1cccc2ccccc12
viability at 10 µM [1]: 115%
viability at 10 µM [2]: 107%
viability at 10 µM [3]: 118%
viability at 10 µM [4]: 110%
viability at 10 µM [5]: 87.7%
viability at 10 µM [6]: 91.8%
viability at 10 µM [7]: 95.5%
viability at 10 µM [8]: 91.2%
viability at 10 µM [9]: 85%
viability at 10 µM [10]: 95.4%
viability at 10 µM [11]: 97.1%
viability at 10 µM [12]: 80.2%
viability at 10 µM [13]: 93.9%
viability at 10 µM [14]: 97.3%
viability at 10 µM [15]: 85.6%
viability at 10 µM [16]: 112%
viability at 10 µM [17]: 93.9%
viability at 10 µM [18]: 78.3%
viability at 10 µM [19]: 88.3%
viability at 10 µM [20]: 104%
viability at 10 µM [21]: 84.6%
viability at 10 µM [22]: 107%
viability at 10 µM [23]: 77.5%
viability at 10 µM [24]: 105%
viability at 10 µM [25]: 127%
viability at 10 µM [26]: 99.9%
viability at 10 µM [27]: 92.3%
viability at 10 µM [28]: 83.9%
viability at 10 µM [29]: 59.2%
viability at 10 µM [30]: 103%
viability at 10 µM [31]: 61%
viability at 10 µM [32]: 131%
viability at 10 µM [33]: 104%
viability at 10 µM [34]: 73.7%
viability at 10 µM [35]: 85%
viability at 10 µM [36]: 80.1%
viability at 10 µM [37]: 98.5%
viability at 10 µM [38]: 89.4%
viability at 10 µM [39]: 106%
viability at 10 µM [40]: 97.4%
viability at 10 µM [41]: 96.2%

O=S(=O)(NCCCNc1nccc(-c2c(-c3cccc(F)c3)nc3sccn23)n1)c1ccc(Br)cc1
viability at 10 µM [1]: 77.6%
viability at 10 µM [2]: 48.1%
viability at 10 µM [3]: 69.4%
viability at 10 µM [4]: 94.4%
viability at 10 µM [5]: 31.6%
viability at 10 µM [6]: 18.3%
viability at 10 µM [7]: 37.9%
viability at 10 µM [8]: 73.7%
viability at 10 µM [9]: 33.5%
viability at 10 µM [10]: 73.5%
viability at 10 µM [11]: 53.9%
viability at 10 µM [12]: 40.8%
viability at 10 µM [13]: 36.8%
viability at 10 µM [14]: 34.4%
viability at 10 µM [15]: 60.6%
viability at 10 µM [16]: 74.8%
viability at 10 µM [17]: 57.4%
viability at 10 µM [18]: 25.4%
viability at 10 µM [19]: 21.2%
viability at 10 µM [20]: 64%
viability at 10 µM [21]: 46.2%
viability at 10 µM [22]: 62.4%
viability at 10 µM [23]: 50.3%
viability at 10 µM [24]: 34.2%
viability at 10 µM [25]: 110%
viability at 10 µM [26]: 57.4%
viability at 10 µM [27]: 88.6%
viability at 10 µM [28]: 39.4%
viability at 10 µM [29]: 31.6%
viability at 10 µM [30]: 57.8%
viability at 10 µM [31]: 24.4%
viability at 10 µM [32]: 96.9%
viability at 10 µM [33]: 81%
viability at 10 µM [34]: 33.8%
viability at 10 µM [35]: 46.7%
viability at 10 µM [36]: 50.3%
viability at 10 µM [37]: 80.1%
viability at 10 µM [38]: 28%
viability at 10 µM [39]: 64.2%
viability at 10 µM [40]: 76.7%
viability at 10 µM [41]: 84.5%
